Here are results for 1 compound from patent publication US20220098197A1, “SALTS OF HETEROCYCLIC COMPOUND AND USE THEREOF” (priority 2019, published 2022).

For one test, the system named is LPS-induced ALI mice. The test is described as follows: LPS-induced ALI model: BALF cell counting. Format: in vivo, Balb/c mice. As for the experimental part:
Specific pathogen-free (SPF) Balb/c mice (♂/♀; 20-26 g; 8 weeks old) were purchased from Shanghai SIPPR-BK Experimental Animal Co., Ltd. Mice were kept in an isolated ventilated cage in an environment of 40-60% humidity, 24±2° C., and 12 hrs/12 hrs dark-light cycle, and had free access to food and water. The method for preparing the LPS-induced ALI model was simply described as follows. The mice were randomly divided into a control group (12 mice) and an LPS group (48 mice). The LPS group (48 mice) was further divided into four subgroups (12 mice in each subgroup). […] 24 hrs after LPS challenge, the oxygen saturation (SO2) of all mice was measured by a Moor VMS-OXY™ instrument which measured SO2 (%) in the microcirculation at the wavelength range of 500 to 650 nm. […]
The mice were euthanized to expose the trachea, and then the right lungs were lavaged three times with 0.4 mL/time of sterile normal saline containing bovine serum albumin (BSA) and 5000 IU/L heparin to collect the BALF via tracheal tube. […] The removed lung tissues were weighted after aspirating the surface blood, and the lung weight coefficient was calculated. The lung weight coefficient was an indicator of pulmonary edema, and it was measured by dividing the individual lung weight of each mouse by its total body weight.

The test system of test [1] is NF-κB signalling pathway in RAW264.7 macrophages. The test is described as follows: Western blotting of NF-κB signalling pathway, RAW264.7. The following applies: CT-NA 0.5, 1.0, 10, or 100 μM, LPS (100 ng/ml). Format: cell-based, mouse. As for the experimental part:
The method for total protein extraction and Western blotting determination was as follows. The lung tissue was homogenized in RIPA buffer (0.5M Tris-HCl, pH 7.4, 1.5M NaCl, 2.5% deoxycholic acid, 10% NP-40, 10 mM EDTA) containing protease and phosphatase inhibitors (Sigma-Aldrich, St. Louis, Mo.). RAW264.7 macrophages were seeded into two 6-well plates at 70-80% confluence. After overnight starvation with serum-free RPMI-1640 medium, RAW264.7 macrophages were pretreated with CT-NA (0.5, 1, 10 and 100 μM) for 1 hour. Thereafter, one 6-well plate was treated with LPS (100 ng/ml) for 1 hour, and the other was treated with PGD2 (10 μM) for 1 hour. After washing three times with PBS, the cells were directly lysed for 30 minutes with shaking in RIPA buffer containing protease and phosphatase inhibitors in an ice environment. Then, the lysate was centrifuged at 12,300×g for 15 minutes at 4° C., and the supernatant was collected. […] was performed to measure protein concentration. Equal amounts of protein (30 μg) were resolved on 12% SDS-PAGE and transferred to 0.45 um polyvinylidene fluoride (PVDF) membranes (Millipore, Bedford, Mass.). The membranes were blocked with 5% (wt/vol) skimmed milk powder at room temperature for 1-2 hrs to reduce non-specific binding. […]
On the technique in general: Immunoblotting shows a protein as a band on a membrane.

The next test relates to CS-induced ALI mice. The experiment in a line: CS-induced lung injury model: albumin assay in BALF. The class given is in vivo, Balb/c mice. The following applies: CT-NA 10 and 30 mg/kg intragastric; CS exposure; p<0.01. As for the experimental part:
Model preparation: The mice were randomly divided into 5 groups (12 mice in each group), which were the control group (the mice were exposed to fresh air), the saline group (the mice were exposed to cigarette smoke), dexamethasone (Dex) group (1 mg/kg) (the mice were exposed to cigarette smoke), CT-NA 10 mg/kg group and CT-NA 30 mg/kg group (the mice were exposed to cigarette smoke). According to the grouping, the mice were intragastrically administered saline, Dex and CT-NA, respectively. Thereafter, the mice were exposed to fresh air or cigarette smoke generated from 3R4F research-grade cigarettes (containing about 600 mg TPM/m^3 and 29.9 mg nicotine/m^3) in a cuboid plastic box (65×50x×45 cm). Ten cigarettes were burned every day for seven days. After one cigarette was burned, the next cigarette was ignited. The daily body weight and general condition of the mice were checked. 24 hrs after the last exposure to the cigarette smoke, the partial pressure of oxygen (PO2) of all mice was measured by the Moor VMS-OXY™ measuring instrument, which was used to measure the oxygenated/deoxygenated hemoglobin concentration and oxygen saturation (percentage) in the microcirculation at the wavelength range of 500 to 650 nm. […] The albumin concentration ratio assessed from BALF represented not only the albumin level but also the permeability of the pulmonary microvascular.

For the compound `CN([C@@H]1CCc2c(CC(=O)[O-])c3cccnc3n2C1)S(=O)(=O)c1ccc(F)cc1.[Na+]` [Sodium salt hydrate], the “BALF cell infiltration, performance compared with Dex” value in the test with LPS-induced ALI mice (CT-NA 30 mg/kg versus 1 mg/kg Dex) is recorded as “essentially same performance as that of 1 mg/kg Dex”. Besides, the “LPS-induced increase of total cells, neutrophils and macrophages in BALF” value with LPS-induced ALI mice (CT-NA 10 and 30 mg/kg intragastric 1 h before and 12 hrs after LPS, BALF 24 hrs after LPS, P<0.01) was “significantly and dose-dependently attenuated”. In test [1], the “degradation of IκBα and P65 induced by LPS” value is reported as “strongly reversed”. In test [1] (dose-dependent), the “LPS-induced IκBα and P65 activation” value is “reduced”. The BALF albumin contents result in the test on CS-induced ALI mice was “remarkably reduced”.
